A short description of this series: recombinant barcode read abundance after kanamycin selection (control-corrected) (log10(CPM+1)); higher = more efficient recombination; sequences stand for … in AGTGCAGAGAAAATCGGCCAGTTTTCTCTGCCTGCAGTCCGCATGCCGT…AGATTTATGCAGCGGACTGCCTTTCTCCCAAAGTGATAAACCGGACAGTATCATGGACCGGTTTTCCCGGTAATCCGTATTTGCAAGGTTGGTTTCACT; site = the 11-nt target. In short, it runs like this: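 This pooled E. coli screen matched targets with IS621 bridge RNA target-binding loops. Plating was done in duplicate on chloramphenicol/ampicillin LB agar as a control and on chloramphenicol/ampicillin/kanamycin plus 0.1 mM IPTG. Recombination efficiency reflects barcode counts at recombinant junctions as counts per million, averaged and control-corrected. The figures are log10(CPM+1).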
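Also: IS621 recombinase and bridge RNA in Escherichia coli cells.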

Turning to “CAATGGTCTTGGGTTCTAACCTGTTGCCT (site CAATGGTCTAG)”, the “recombinant barcode read abundance (log10)” value turned out to be 1.54. “CAATGGTCTTGGGTTCTAACCTGTTGCCT (site CAATGGTCTAT)”: the “recombinant barcode read abundance (log10)” value came to 0.939.

Consider “CAATGGTCTTGGGTTCTAACCTGTTGCGT (site CAATGGTCTAA)”, for which the “recombinant barcode read abundance (log10)” value was 0.583.

On to “CAATGGTCTTGGGTTCTAACCTGTTGCGT (site CAATGGTCTAC)”, for which the “recombinant barcode read abundance (log10)” value turned out to be 3.06. As for “CAATGGTCTTGGGTTCTAACCTGTTGCGT (site CAATGGTCTAG)”, the figure is 0.638.

On to “CAATGGTCTTGGGTTCTAACCTGTTGCGT (site CAATGGTCTAT)”, for which the “recombinant barcode read abundance (log10)” value came out at 2.16. As for “CACAATCCTTGGGTTCTAACCTGTTGCGT (site CACAATCCTAC)”, the figure is 1.76.

On to “CACAATCCTTGGGTTCTAACCTGTTGCGT (site CACACACCTAC)”, for which the “recombinant barcode read abundance (log10)” value is 0.0965. “CACACGACTTGGGTTCTAACCTGTTGCCT (site CACACGACTAG)”: the “recombinant barcode read abundance (log10)” value amounted to 0.99. Take “CACACGACTTGGGTTCTAACCTGTTGCCT (site CACACGTCTAG)”: the “recombinant barcode read abundance (log10)” value came to 0.109. Then “CACACGTCTTGGGTTCTAACCTGTTGCCT (site CACACGACTAG)”, with 0.103; and “CACACGTCTTGGGTTCTAACCTGTTGCCT (site CACACGTCTAG)”, with 1.24. Turning to “CACACTACTTGGGTTCTAACCTGTTGCTG (site CACACTACTCA)”, the “recombinant barcode read abundance (log10)” value amounted to 0.818. In the case of “CACACTACTTGGGTTCTAACCTGTTGCTG (site GGTGAGCCTAC)”, the “recombinant barcode read abundance (log10)” value is 0.24. For “CACAGACCTTGGGTTCTAACCTGTTGCCT (site AACAGACCTAG)”, the “recombinant barcode read abundance (log10)” value was determined as 0.00929. “CACAGACCTTGGGTTCTAACCTGTTGCCT (site CACAGACCTAG)”: the “recombinant barcode read abundance (log10)” value is 1.47.

For the sequence “CACAGACCTTGGGTTCTAACCTGTTGCCT (site GACAGACCTAG)”, the “recombinant barcode read abundance (log10)” value was found to be 0.205.

With “CACAGACCTTGGGTTCTAACCTGTTGCCT (site TACAGACCTAG)”, the “recombinant barcode read abundance (log10)” value worked out at 0.251. Then “CACAGATCTTGGGTTCTAACCTGTTGCTT (site CAAAGATCTAA)”, with 0.14. As for “CACAGATCTTGGGTTCTAACCTGTTGCTT (site CACAGATCTAA)”, the figure is 0.351; as for “CACAGATCTTGGGTTCTAACCTGTTGCTT (site CAGAGATCTAA)”, 0.122. As to “CACAGATCTTGGGTTCTAACCTGTTGCTT (site CATAGATCTAA)”, the “recombinant barcode read abundance (log10)” value was 0.0763. “CACAGTACTTGGGTTCTAACCTGTTGCCT (site AACAGTACTAG)”: the “recombinant barcode read abundance (log10)” value stood at 0.0407.

Regarding “CACAGTACTTGGGTTCTAACCTGTTGCCT (site CACAGTACTAG)”, the “recombinant barcode read abundance (log10)” value came out at 0.901. Regarding “CACAGTACTTGGGTTCTAACCTGTTGCCT (site GACAGTACTAG)”, the “recombinant barcode read abundance (log10)” value came out at 0.29. As for “CACAGTACTTGGGTTCTAACCTGTTGCCT (site TACAGTACTAG)”, the figure is 0.0394. As for “CACAGTCCTTGGGTTCTAACCTGTTGCTA (site AGGGTCGCTAG)”, the figure is 0.049; as for “CACAGTCCTTGGGTTCTAACCTGTTGCTA (site CACAGTCCTTA)”, 0.966. “CACCAAACTTGGGTTCTAACCTGTTGCCT (site CACCAAACTAG)”: the “recombinant barcode read abundance (log10)” value came out at 0.299. Consider “CACCAAACTTGGGTTCTAACCTGTTGCCT (site CACCAACCTAG)”, for which the “recombinant barcode read abundance (log10)” value worked out at 0.0986. Then “CACCACCCTTGGGTTCTAACCTGTTGCGG (site CACCACCCTCC)”, with 1.35.

For “CACCACCCTTGGGTTCTAACCTGTTGCGG (site GGTACTTCTAA)”, the “recombinant barcode read abundance (log10)” value is 0.358. For the sequence “CACCGAGCTTGGGTTCTAACCTGTTGCCG (site CAACGAGCTCG)”, the “recombinant barcode read abundance (log10)” value is 0.223.

For “CACCGAGCTTGGGTTCTAACCTGTTGCCG (site CACCGAGCTCG)”, the “recombinant barcode read abundance (log10)” value was found to be 0.577. As to “CACCGAGCTTGGGTTCTAACCTGTTGCCG (site CAGCGAGCTCG)”, the “recombinant barcode read abundance (log10)” value is 0.534.

For the sequence “CACCGAGCTTGGGTTCTAACCTGTTGCCG (site CATCGAGCTCG)”, the “recombinant barcode read abundance (log10)” value is 0.145. As to “CACGAGCCTTGGGTTCTAACCTGTTGCCT (site CACGAGACTAG)”, the “recombinant barcode read abundance (log10)” value was 0.149. On to “CACGAGCCTTGGGTTCTAACCTGTTGCCT (site CACGAGCCTAG)”, for which the “recombinant barcode read abundance (log10)” value worked out at 2.24.

Regarding “CACGAGCCTTGGGTTCTAACCTGTTGCCT (site CACGAGGCTAG)”, the “recombinant barcode read abundance (log10)” value came out at 0.0367. As for “CACGAGCCTTGGGTTCTAACCTGTTGCCT (site CACGAGTCTAG)”, the figure is 1.63; as for “CACGCATCTTGGGTTCTAACCTGTTGCCT (site CACCAATCTAG)”, 0.211; as for “CACGCATCTTGGGTTCTAACCTGTTGCCT (site CACGCATCTAG)”, 0.822. On to “CACGGAACTTGGGTTCTAACCTGTTGCCT (site CACGGAACTAG)”, for which the “recombinant barcode read abundance (log10)” value was 1.82. Then “CACGGAACTTGGGTTCTAACCTGTTGCCT (site CACGTTACTAG)”, with 0.59; and “CACGGGCCTTGGGTTCTAACCTGTTGCCT (site CACGGGCCTAG)”, with 0.466. “CACGGGCCTTGGGTTCTAACCTGTTGCCT (site GACAGGCCTAG)”: the “recombinant barcode read abundance (log10)” value turned out to be 0.0551. In the case of “CACTAGACTTGGGTTCTAACCTGTTGCCG (site CACTAGACTCG)”, the “recombinant barcode read abundance (log10)” value was found to be 1.37. With “CACTAGACTTGGGTTCTAACCTGTTGCCG (site GTGACTGCTAC)”, the “recombinant barcode read abundance (log10)” value worked out at 0.242. On to “CACTCCTCTTGGGTTCTAACCTGTTGCTT (site CACTCCTCTAA)”, for which the “recombinant barcode read abundance (log10)” value stood at 0.0523. For the sequence “CACTCCTCTTGGGTTCTAACCTGTTGCTT (site CTCTGCTCTAA)”, the “recombinant barcode read abundance (log10)” value came to 0.0209. As to “CACTGAGCTTGGGTTCTAACCTGTTGCCT (site CACTGAGCTAG)”, the “recombinant barcode read abundance (log10)” value stood at 0.845. “CACTGAGCTTGGGTTCTAACCTGTTGCCT (site TACTGAGCTAG)”: the “recombinant barcode read abundance (log10)” value worked out at 0.229. For the sequence “CACTGATCTTGGGTTCTAACCTGTTGCCT (site CACTGATCTAG)”, the “recombinant barcode read abundance (log10)” value worked out at 1.28. Take “CACTGATCTTGGGTTCTAACCTGTTGCCT (site CACTGCTCTAG)”: the “recombinant barcode read abundance (log10)” value worked out at 0.0175. Then “CACTGATCTTGGGTTCTAACCTGTTGCCT (site CACTGGTCTAG)”, with 0.281; and “CACTGATCTTGGGTTCTAACCTGTTGCCT (site CACTGTTCTAG)”, with 0.302. In the case of “CACTTTGCTTGGGTTCTAACCTGTTGCCT (site AGGGAGACTGA)”, the “recombinant barcode read abundance (log10)” value turned out to be 0.145. Then “CACTTTGCTTGGGTTCTAACCTGTTGCCT (site CACTTTGCTAG)”, with 0.207; and “CAGAATCCTTGGGTTCTAACCTGTTGCGG (site CAGAATCCTCC)”, with 1.73; and “CAGAATCCTTGGGTTCTAACCTGTTGCGG (site TCTCTCGCTAG)”, with 0.0949. Regarding “CAGACGACTTGGGTTCTAACCTGTTGCCA (site CAGACGACTTG)”, the “recombinant barcode read abundance (log10)” value amounted to 0.37.

On to “CAGACGACTTGGGTTCTAACCTGTTGCCA (site TGCTGTCCTAA)”, for which the “recombinant barcode read abundance (log10)” value is 0.0664. Then “CAGAGATCTTGGGTTCTAACCTGTTGCTT (site CAAAGATCTAA)”, with 0.328; and “CAGAGATCTTGGGTTCTAACCTGTTGCTT (site CACAGATCTAA)”, with 0.137; and “CAGAGATCTTGGGTTCTAACCTGTTGCTT (site CAGAGATCTAA)”, with 1.33. On to “CAGAGATCTTGGGTTCTAACCTGTTGCTT (site CATAGATCTAA)”, for which the “recombinant barcode read abundance (log10)” value came to 0.104. As to “CAGAGCTCTTGGGTTCTAACCTGTTGCCG (site AGACAGACTAC)”, the “recombinant barcode read abundance (log10)” value worked out at 0.078. For “CAGAGCTCTTGGGTTCTAACCTGTTGCCG (site CAGAGCTCTCG)”, the “recombinant barcode read abundance (log10)” value was found to be 2.05.

Take “CAGAGTCCTTGGGTTCTAACCTGTTGCAT (site CAGAGTCCTAG)”: the “recombinant barcode read abundance (log10)” value came to 0.852. Consider “CAGAGTCCTTGGGTTCTAACCTGTTGCAT (site CAGAGTCCTAT)”, for which the “recombinant barcode read abundance (log10)” value stood at 1.88. Turning to “CAGATTCCTTGGGTTCTAACCTGTTGCCT (site CAGATTCCTAG)”, the “recombinant barcode read abundance (log10)” value came to 0.542. In the case of “CAGATTCCTTGGGTTCTAACCTGTTGCCT (site GAGATTCCTAG)”, the “recombinant barcode read abundance (log10)” value was found to be 0.222. With “CAGCCACCTTGGGTTCTAACCTGTTGCCT (site AAGCCACCTAG)”, the “recombinant barcode read abundance (log10)” value is 0.0775. With “CAGCCACCTTGGGTTCTAACCTGTTGCCT (site CAGCCACCTAG)”, the “recombinant barcode read abundance (log10)” value was found to be 1.4.

With “CAGCCACCTTGGGTTCTAACCTGTTGCCT (site GAGCCACCTAG)”, the “recombinant barcode read abundance (log10)” value came out at 0.0262. “CAGCCACCTTGGGTTCTAACCTGTTGCCT (site TAGCCACCTAG)”: the “recombinant barcode read abundance (log10)” value is 0.

In the case of “CAGCGGTCTTGGGTTCTAACCTGTTGCGA (site CAGCGGTCTTC)”, the “recombinant barcode read abundance (log10)” value was 1.65.

For the origin of these results see the supplement of paper PMC11208160.
